Experimental data taken from patent US6512004B2, “Promoters of neural regeneration” (The Regents of the University of California, priority 1998, dated 2003).
“Also recorded” adds a separate entry of the source.

What was measured:
Format in all cases: cell-based
[1] = system: growth cones of the cultured Xenopus spinal neuron; experiment: Growth cone turning in a Sema III gradient; conditions: for growth cone turning response in Sema III gradient with agent in culture medium: Sema III 50 μg/ml in the pipette, 8-br-cGMP 100 μM, Sp-cGMPS 10 μM, PP-9 10 μM, SNAP 300 μM, Rp-cGMPS 10 μM, cAMPS analogues 20 μM, one-hour exposure
Procedure: Collapsin-1/Semaphorin III/D (Sema III), a diffusible member of the semaphorin family can repel or cause collapse of growth cones in culture (6). […] We analyzed the effect of a microscopic gradient of Sema III on growth cones of the cultured Xenopus spinal neuron (8). Sema III-containing saline was applied in pulses from a micropipette positioned 100 μm from the center of the growth cone and at a 45° angle with respect to the original direction of neurite extension. […] The repulsive response was dose-dependent with a minimal response occurring at an effective concentration of about 10 ng/ml at the growth cone (8). Heat-inactivated Sema III was ineffective (FIG. 1A). […] The rate of neurite extension was unaffected by the presence of the Sema III gradient.
(§1) 8. Dissociated Xenopus spinal neurons were prepared as described (4,5). Isolated spinal neurons were used for experiments at room temperature (22°-24° C.) 14-22 hour after plating. Sema III was purified from conditioned medium of stable 293-EBNA cell lines secreting Sema III-AP as described (17). To inactivate Sema III activity, the supernatant containing Sema III-AP was heated at 85° C. for 45 minutes [J. Fan and J. A. Raper, Neuron 14, 263 (1995)]. Microscopic gradients of diffusible factors were produced as described (4,5). The average concentration of factors at the growth cone was about 10^3-fold lower than that in the pipette [A. M. Lohof, M. Quilian, Y. Dan and M-m. Poo, J. Neurosci. 12, 1253 (1992)], and a concentration gradient of 5-10% was created across a growth cone 10 μm wide, 100 μm away from the tip of the ejecting pipette. The original direction of neurite growth was defined by the last 10-μm segment of the neurite. The turning angle was defined by the angle between the original direction of neurite extension and a straight line connecting the positions of the growth cone at the onset and the end of the one hour period. Only growth cones with a net extension >5 μm over the one-hour period were scored.
(§2) 10. M. A. Schwarzschild and R. E. Zigmond, J. Neurochem. 56, 400 (1991). Pharmacological agents were added to the culture medium at least 30 minutes before the gradient was applied and were present during the experiments. The final concentrations of pharmacological agents in the medium were listed.

[2] = system: growth cones of Xenopus spinal neurons; experiment: Growth cone turning in a rMAG gradient; conditions: rMAG 150 μg/ml in the pipette; 8-br-cGMP 100 μM, Sp-cAMPS 20 μM
Description: To examine whether the responses to other repulsive factors can be converted, we studied myelin-associated glycoprotein (MAG), a component of myelin and an inhibitor of axonal regeneration (22). […] However, the repulsion by rMAG was not affected by the addition of 8-br-cGMP. […] Thus the turning response induced by rMAG can be modulated by cAMP-dependent activities. This is reminiscent of the turning responses induced by gradients of BDNF and netrin-1 (4,5), although the latter factors are normally attractive and are converted to repulsive by inhibition of cAMP-dependent activities.
as §1
10. M. A. Schwarzschild and R. E. Zigmond, J. Neurochem. 56, 400 (1991). Pharmacological agents were added to the culture medium at least 30 minutes before the gradient was applied and were present during the experiments. […]

[3] = system: rat dorsal root ganglion (DRG) axons; experiment: Growth cone collapse assay with Sema III on DRG explants
Procedure: 21. DRG explants derived from E14 rat embryos were cultured with 25 ng/ml NGF on plates precoated with poly-D-lysine and laminin for 20 hours before experiments as described (17). Pharmacological agents were added an hour before the collapse assay. The collapse assay was performed on sensory axons from these explants using Sema III-AP-containing medium essentially as described (17). For visualization, growth cones were stained with rhodamine-phalloidin, then washed and mounted.

[4] = system: growth cones of Xenopus spinal neurons; experiment: Growth cone turning in a netrin-1 gradient; conditions: for turning response in netrin-1 gradient with agent in medium: netrin-1 5 μg/ml in the pipette, Rp-cGMPS 10 μM, 8-br-cGMP 100 μM, Rp-cAMPS 20 μM
Procedure: (§3) FIGS. 4A-4D. (A) Effects of manipulating cyclic nucleotide levels on turning induced by a rMAG gradient (150 μg/ml in the pipette) in normal medium, in medium containing 8-br-cGMP (100 μM) or Sp-cAMPS (20 μM), and by heat-inactivated rMAG in normal medium. […] (B) Effects of reducing [Ca^2+]o on turning responses induced by rMAG. […] (C) Turning responses induced by a gradient of netrin-1 (5 μg/ml in the pipette) (5), in normal medium and in medium containing Rp-cGMPS (10 μM), 8-br-cGMP (100 μM), Rp-cAMPS (20 μM), or both Rp-cAMPS (20 μM) and 8-br-cGMP (100 μM). […] (D) Turning induced by a NT-3 gradient (50 μg/ml in the pipette) in normal medium and in medium containing Rp-cAMPS (20 μM) or Rp-cGMPS (10 μM), or in medium containing 1 μM Ca^2+.
as §1, §2

[5] = system: growth cones of Xenopus spinal neurons; experiment: Growth cone turning in a NT-3 gradient; conditions: NT-3 50 μg/ml in the pipette; Rp-cGMPS 10 μM, Rp-cAMPS 20 μM
Procedure: as §3
8. Dissociated Xenopus spinal neurons were prepared as described (4,5). Isolated spinal neurons were used for experiments at room temperature (22°-24° C.) 14-22 hour after plating. Sema III was purified from conditioned medium of stable 293-EBNA cell lines secreting Sema III-AP as described (17). To inactivate Sema III activity, the supernatant containing Sema III-AP was heated at 85° C. for 45 minutes [J. Fan and J. A. Raper, Neuron 14, 263 (1995)]. Microscopic gradients of diffusible factors were produced as described (4,5). […] Only growth cones with a net extension >5 μm over the one-hour period were scored. […]

[6] = system: growth cones of Xenopus spinal neurons; experiment: Growth cone turning in gradients of purified MAG or purified myelin; conditions: purified MAG 150 μg/ml, purified myelin 25 μg/ml in the pipette; with or without Sp-cAMPS, 8-br-cGMP, low Ca2+
Procedure: FIG. 5. Growth cone turning induced by purified myelin. A gradient of purified myelin (25 μg/ml in the pipette) was applied in normal culture medium (open circles), in medium containing Sp-cAMPS (20 μM, solid circles), or 8-br-cGMP (100 μM, solid squares). Isolated symbols along the abscissa are median values for corresponding data shown above.
FIGS. 6A, 6B. Effects of purified myelin-associated glycoprotein (MAG) on growth cones of Xenopus spinal neurons. A gradient of purified MAG (150 μg/ml in the pipette) was applied in normal culture medium (open circles), in medium containing Sp-cAMPS (20 μM, solid circles), or in medium containing 8-br-cGMP (100 μM, solid squares). (A) Shown are distributions of turning angles under different conditions. Isolated symbols along the abscissa are median values for corresponding data shown above. (B) Shown are distributions of net neurite extension in the gradient under different conditions.
FIGS. 7A, 7B. Effects of reducing external Ca^2+. (A) Purified MAG-induced turning depends on [Ca^2+]o. Shown are distributions of turning angles in normal medium in the absence (solid circles) or presence of Sp-cAMPS (20 μM, solid squares), and in medium containing 1 μM [Ca^2+]o in the absence (open circles) or presence of Sp-cAMPS (20 μM, open squares), respectively. […]
8. […] Only growth cones with a net extension >5 μm over the one-hour period were scored.

Molecule	growth cone turning response in Sema III gradient with agent in culture medium [1]	growth cone turning response in rMAG gradient with agent in medium [2]	inhibition of the collapsing activity of Sema III ([3]; agent added an hour before the collapse assay)	concentrations needed to inhibit the collapsing activity of Sema III ([3]; rat DRG explants) [mM]	effect of agent alone on growth cones ([3]; without Sema III)	repulsive turning in netrin-1 gradient in the presence of Rp-cAMPS ([4]; Rp-cAMPS 20 μM and 8-br-cGMP 100 μM)	turning response in netrin-1 gradient with agent in medium [4]	attractive response in a NT-3 gradient with agent in medium [5]	conversion of the Sema III turning response in the presence of 8-br-cGMP ([1]; 8-br-cGMP 100 μM plus Rp-cAMPS or Sp-cAMPS 20 μM)	growth cone turning induced by the purified factor and its modulation [6]
Nc1nc2c(nc(Br)n2[C@@H]2O[C@@H]3COP(=O)(O)O[C@H]3[C@H]2O)c(=O)[nH]1 [Activator 8-br-cGMP, 8-br-cGMP]	nearly all growth cones turned toward rather than away from the pipette; also recorded: attractive response	not affected	inhibited the collapsing activity of Sema III in a dose-dependent manner	0.5 to 5	no detectable effect	not affected	did not affect the attractive turning			
Nc1ncnc2c1ncn2[C@@H]1O[C@@H]2CO[P@@](O)(=S)O[C@H]2[C@H]1O [Rp-cAMPS]							repulsive turning	no effect	blocked the conversion of the turning response	
Nc1nc2c(ncn2[C@@H]2O[C@@H]3COP(O)(=S)O[C@H]3[C@H]2O)c(=O)[nH]1 (some centres unmarked) [Rp-cGMPS]	did not affect the growth cone response						did not affect the attractive turning	converted to repulsive response		
purified myelin-associated glycoprotein (MAG): Native MAG purified from myelin after extraction in 1% octylglucoside and DEAE-Sepharose separation (protein, UniProt P07722 20-626, looked up) Myelin-associated glycoprotein: GHWGAWMPSSISAFEGTCVSIPCRFDFPDELRPAVVHGVWYFNSPYPKNYPPVVFKSRTQVVHESFQGRSRLLGDLGLRNCTLLLSTLSPELGGKYYFRGDLGGYNQYTFSEHSVLDIINTPNIVVPPEVVAGTEVEVSCMVPDNCPELRPELSWLGHEGLGEPTVLGRLREDEGTWVQVSLLHFVPTREANGHRLGCQAAFPNTTLQFEGYASLDVKYPPVIVEMNSSVEAIEGSHVSLLCGADSNPPPLLTWMRDGMVLREAVAESLYLDLEEVTPAEDGIYACLAENAYGQDNRTVELSVMYAPWKPTVNGTVVAVEGETVSILCSTQSNPDPILTIFKEKQILATVIYESQLQLELPAVTPEDDGEYWCVAENQYGQRATAFNLSVEFAPIILLESHCAAARDTVQCLCVVKSNPEPSVAFELPSRNVTVNETEREFVYSERSGLLLTSILTLRGQAQAPPRVICTSRNLYGTQSLELPFQGAHRLMWAKIGPVGAVVAFAILIAIVCYITQTRRKKNVTESPSFSAGDNPHVLYSPEFRISGAPDKYESEKRLGSERRLLGLRGEPPELDLSYSHSDLGKRPTKDSYTLTEELAEYAEIRVK										results similar to those with rMAG
